Experimental data as given in patent US6379959B1, “Metalocarboxypeptidase inhibitors and derived molecules used as antitumor agents” (Universitat Autonoma de Barcelona, priority 1996, dated 2002).
Where two headings read alike, the source gives them in different places. Positions of bridges follow the written chain, without caps; N, C: chain ends. No end group written: not given here.

Tests used:
[1] = system: human pancreatic adenocarcinoma cell line MDAPanc-3; assay: Proliferation test by recount of the cells number (hemocytometer), MDAPanc-3; type: cell-based
Procedure: In this assay and with the aim of determining whether the presence in the culture medium produces some effect on the growth in vitro of the cell lines, the final number of the cells when the control reaches monolayer is determined, in the presence and in the absence of the inhibitor. The calculation is made by direct recount of the number of cells using trypsinization and subsequent recount in a hemocytometer. The detailed method is as follows:
1. In each of the three culture flasks of 25 cm^2, 5×10^5 cells are seed and a total volume of the culture medium is added (DMEM with a 10% of fetal bovine serum or synthetic serum, according to the test) of 5 mL:
A first flask is used as control and no PCI is added to it.
PCI is added to a second flask some hours after the culture has started and once the cells have adhered to the bottom of the flask. This type of test is defined as postadherence test.
PCI is added to a third flask at the same time as the culture has begun, before the cells have had time to adhere to the bottom of the flask, thus constituting the preadherence test.
2. The cells are maintained in an incubator at 37° C., 87% of relative humidity and 10% of CO2. The medium contained in the flasks is changed every 3-4 days. Medium free of PCI is added to the control flask; medium with PCI is added to the other two.
3. When the culture of one of the flasks reaches a state of monolayer (or after a specific number of days), we proceed to count the number of cells in each one of them. Firstly and in order to do that, the cells are trypsinized using the following steps:
Immediately after, the recount of the number of cells is done. To do that, an aliquot of 10 μL is taken and it is placed in an eppendorf tube. 10 μL of a solution of trypan blue dye is added. Then, it is well mixed and two aliquots of 10 μL of the mixture are taken and placed in the two zones of an hemocytometer which is placed in the inverted microscope.
The live cells are observed as being refringent and clear, while the dead ones are observed as opaque and dyed blue, for the staining is only able to penetrate dead cells. The total number of cells of the W zone of the hemocytometer is counted, differentiating between the live and the dead ones. Based on this recount, the total number of cells that was in the initial suspension (which will be the total number of cells that was in the culture) is calculated by multiplying the number obtained by 2×10^4. The viability (in %) is calculated by dividing the number of live cells by the total number of counted cells and multiplying it by 100.
The effect produced by the presence of PCI in the medium is expressed as % of cell growth inhibition, which is calculated according to the formula [formula] […]

[2] = system: human pancreatic adenocarcinoma cell line Capan-1; type: cell-based; conditions: SFM, 72 h
Procedure: Other kinds of tests were also carried out, the cells growing in serum-free medium as well; these were studies at short periods of time, 72 h, and of competitiveness with a growth factor plus wtPCI, PCIdelYVG or tail. […] The protocol employed was as follows:
1. In a culture plate of 96 wells, in 42 of which 5,000 cells per well were seed. The cells were placed in full medium (DMEM+10%FBS).
2. After 72 h, once the adhesion of the cells to the surface of the well had taken place, as well as their division, the medium was removed from the wells and to eliminate the remainder of the serum, 200 μL of PBS were added to each well.
3. The PBS was removed and 200 μL of DMEM-FBS were added.
4. After 24 h, the medium was removed and the following treatments were applied:
In 6 wells (control): 200 μL of serum-free medium (SFM) were added.
200 μL of SFM plus the indicated concentration of one of the growth factors and wtPCI were added in 6 wells at a final concentration of 50 μg/mL.
In 6 wells, 200 μL of SFM plus the indicated concentration of one of the growth factors and PCIdelYVG were added at a final concentration of 46 μg/mL. […]
4. Cells were kept in an incubator at 37° C., 87% of relative humidity and 10% of CO2.
5. After 72 h, the cellular growth per well was evaluated using the method detailed in the protocol of Section 4.B.2.a.

[3] = system: ribonuclease secreted by Capan-1; assay: Ribonuclease secretion and glycosylation pattern (zymogram); type: cell-based, human; conditions: PCI 5 μg/mL, pre and postadhesion; DMEM + BMS 10%
Description: To verify whether the PCI when affecting cell growth may provoke metabolic changes too, we analysed the changes in a secreted protein, ribonuclease, in the human pancreatic adenocarcinoma cell line Capan-1. Apart from the mentioned material required for cell culture, this analysis was based on the detection of ribonuclease activity by means of the electrophoretic analysis in activity gels (zymograms) (Bravo, J. et al (1994) Anal Biochem., 219: 82-86).
With this aim in mind, the culture medium of the proliferation tests of Section 4.B.1 was taken. Thus, a culture medium of control cells was provided for cells treated with PCI from the beginning (preanchorage) and for cells treated once they had adhered to the culture surface (postanchorage). Given the fact that the FBS contains bovine ribonuclease which would interfere in our research, these cells grew in DMEM supplemented with BMS at 10%. The procedure was as follows: […]
At the moment of the analyses, the media were unfrozen in order to have an aliquot of each sample. The concentration of total protein was determined by means of the Bradford method (Bradford, M. M. (1976) Anal. Biochem., 72: 248-254). […]
The analysis of ribonuclease secretion was done with Capan-1. […] Using the electrophoretic analysis of ribonuclease activity, the pattern of glycosylation of this protein could be observed and a certain quantification could be made.

PCI: potato carboxypeptidase inhibitor, isoform IIa, obtained by recombinant DNA techniques in E. coli (SEQ ID NO.2) (EQHADPICNKPCKTHDDCSGAWFCQACWNSARTCGPYVG; disulfide 12-27, 18-34, 8-24)
Percentage of Growth Inhibition ([1]; 5 mg PCI/mL, Postadhesion): 19.1 ± 14.5% | Percentage of Growth Inhibition ([1]; 5 mg PCI/mL, Preadhesion, DMEM+10%BMS until controls confluent): 20.7 ± 6.9% | Percentage of Growth Inhibition ([1]; 10 mg PCI/mL, Postadhesion): 14.3 ± 12.4% | Percentage of Growth Inhibition ([1]; 10 mg PCI/mL, Preadhesion): 14.6 ± 14.2% | Growth (Percentage in relation to the average of the controls) ([2]; EGF 10 ng/mL + 50 mg/mL wtPCI): 30.63% | Growth (Percentage in relation to the average of the controls) ([2]; Insulin 5 mg/mL + 50 mg/mL wtPCI): 44.10% | secretion and glycosylation of ribonuclease compared to the control group [3]: higher secretion of ribonuclease with a higher degree of glycosylation
